Test results from paper PMC12066977, “Alkyl Tail Variation on Chalcone‐Based Quaternary Pyridinium Salts as Rule‐of‐Thumb for Antimicrobial Activity” (Archiv Der Pharmazie, 2025).

How the values were obtained:
Format in all cases: cell-based
S. aureus ATCC 25923 = experiment: Broth microdilution antimicrobial assay (MIC, IC50); settings: Staphylococcus aureus
Description: (§1) Reference strains of Staphylococcus aureus (ATCC 25923), Escherichia coli (ATCC 25922), and Candida albicans (ATCC 10231) were used in this study as microbial models. These strains were purchased from the American Type Culture Collection (ATCC); bacterial cultures were routinely grown on 5% blood agar plate, while fungal cultures on Sabouraud Dextrose Agar (Biolife […]., Milan, Italy). […] In short, microbial inocula were prepared at 0.5 McFarland in PBS and, subsequently, bacterial suspensions were diluted 1:200 in Mueller-Hinton broth (Sigma-Aldrich, St. Louis, MO, USA), while fungal inoculum was diluted 1:20 in RPMI-1640 medium (Gibco®, ThermoFisher Scientific Inc., Waltham, MA, USA), containing glucose 2%, 0.3% levo-glutamine buffered to pH 7.0 with 0.165 M 3-(N-morpholino) propanesulfonic acid (MOPS). A total of 100 μL of these microbial suspensions was introduced into a 96-well microplate and incubated with 100 μL of the compounds, two-fold serially diluted in the range of 100-0.19 μM. Positive controls (microbial suspensions in regular media), negative controls (only compounds), and solvent controls (microbial suspensions incubated with DMSO dilutions) were included in the tests. The plate was incubated at 37°C for 24 h, and subsequently the optical density at 630 nm (OD630nm) was spectrophotometrically measured. Experiments were carried out in triplicate in three biological replicates. […] Statistical analysis was carried out by using GraphPad Prism version 9.4.1 for Windows (GraphPad Software, San Diego, California USA, www.graphpad.com). ^a MIC (Minimum Inhibitory Concentration) were determined in vitro by means of a standardized microdilution assay, in compliance with the Clinical and laboratory Standard Institute (CLSI) guidelines (30). Microbial suspensions were prepared at 0.5 McFarland in PBS, then diluted in the media and transferred in a 96 micro-well plate together with the serially 2-fold dilutions of the compounds. After 24h of incubation at 37°C, microbial growths were evaluated by measuring the Optical Density at 600 nm, then percentage values were obtained as relative to the positive controls (microbial suspensions in regular media).

C. albicans ATCC 10231 = experiment: as above; settings: Candida albicans, 24 h
Description: as §1

E. coli ATCC 25922 = experiment: as above; settings: Escherichia coli, 24 h
Description: as §1

[1] = Cell viability and proliferation assay (WST8/CCK-8); settings: African green monkey, Vero cells (ATCC CCL-81), 48 h treatment, CCK-8; read-out: CC50 [95% CI] Vero cells
Description: Vero cell line (ATCC CCL‐81) was selected as a model system to investigate the overall effect of chalcones on non‐malignant mammalian cells. […] For experiments, cells were seeded into 96‐well plates at 10^4 cells/well and incubated at 37°C for 24 h. Following washes with PBS, the cell monolayer was incubated with 100 µL of medium containing the twofold serial dilutions of the compounds. Both untreated cells and cells incubated with medium containing solvent dilutions were included in each experiment as controls. The cell viability was assessed by a WST8‐based assay according to the manufacturer's instructions (CCK‐8, Cell Counting Kit‐8, Dojindo Molecular Technologies, Rockville, MD, USA). After 48 h of incubation, culture medium was removed from each well, the monolayer was washed with PBS, and 100 µL of fresh medium containing 10 µL of CCK‐8 solution was added. Following a 2 h incubation at 37°C, the OD450nm was read, and data were expressed as the percentage of cell viability relative to the untreated controls. The CC50 was obtained on the corresponding dose–response curves generated as previously reported for IC50 values. Experiments were carried out in triplicate in three biological replicates.

**Q.** Which IC50 (S. aureus ATCC 25923; ATCC25923, 50% growth inhibition, 24 h, read-out: IC50 [95% confidence interval] Staphylococcus aureus) does the source give for C#CCOc1ccc(C(=O)/C=C/c2ccc[n+](CCCCCCCCCCCCCC)c2)c(OCC#C)c1.[Br-] [Compound 6, (E)‐3‐{3‐[2,4‐Bis(prop‐2‐yn‐1‐yloxy)phenyl]‐3‐oxoprop‐1‐en‐1‐yl}‐1‐tetradecylpyridin‐1‐ium bromide] here?
**A.** Its IC50 is 1.3 µM.

**Q.** And the MIC (S. aureus ATCC 25923; ATCC25923, 24 h, broth microdilution, 37°C)?
**A.** Its MIC is 3.12 µM.

**Q.** And the IC50 (C. albicans ATCC 10231; ATCC10231, 50% growth inhibition, read-out: IC50 [95% confidence interval] Candida albicans)?
**A.** The IC50 was 1.32 µM.

**Q.** And the MIC (C. albicans ATCC 10231; ATCC10231, broth microdilution, 37°C)?
**A.** The MIC was 1.56 µM.

**Q.** And the IC50 (E. coli ATCC 25922; ATCC25922, 50% growth inhibition, read-out: IC50 [95% confidence interval] Escherichia coli)?
**A.** The IC50 was 36.3 µM.

**Q.** What about the MIC (E. coli ATCC 25922; ATCC25922, broth microdilution, 37°C) of the same compound?
**A.** The MIC was 50 µM.

**Q.** What about the CC50 at 48 h [1] of the same compound?
**A.** Its CC50 at 48 h is 6.16 µM.
